Experimental data published in US9636418B2 (priority 2013, dated 2017).

How the values were obtained:
Experiment in all cases: cell-based
hNav1.4 = hNav1.4 (Homo sapiens, UniProt P35499); details: for Nav1.4/Nav1.7: ratio of PX tonic IC50 values; for IC50: PatchXpress, tonic block, read-out: PX hNav1.4 Tonic IC50
hNav1.7 = hNav1.7 (Homo sapiens, UniProt Q15858); type: cell-based; details: PatchXpress, tonic block; read-out: PX hNav1.7 Tonic IC50
hNav1.5 = hNav1.5 (Homo sapiens, UniProt Q14524); details: for Nav1.5/Nav1.7: ratio of PX tonic IC50 values; for IC50: PatchXpress, tonic block, read-out: PX hNav1.5 Tonic IC50
Chain of hNav1.5 (Q14524 whole entry): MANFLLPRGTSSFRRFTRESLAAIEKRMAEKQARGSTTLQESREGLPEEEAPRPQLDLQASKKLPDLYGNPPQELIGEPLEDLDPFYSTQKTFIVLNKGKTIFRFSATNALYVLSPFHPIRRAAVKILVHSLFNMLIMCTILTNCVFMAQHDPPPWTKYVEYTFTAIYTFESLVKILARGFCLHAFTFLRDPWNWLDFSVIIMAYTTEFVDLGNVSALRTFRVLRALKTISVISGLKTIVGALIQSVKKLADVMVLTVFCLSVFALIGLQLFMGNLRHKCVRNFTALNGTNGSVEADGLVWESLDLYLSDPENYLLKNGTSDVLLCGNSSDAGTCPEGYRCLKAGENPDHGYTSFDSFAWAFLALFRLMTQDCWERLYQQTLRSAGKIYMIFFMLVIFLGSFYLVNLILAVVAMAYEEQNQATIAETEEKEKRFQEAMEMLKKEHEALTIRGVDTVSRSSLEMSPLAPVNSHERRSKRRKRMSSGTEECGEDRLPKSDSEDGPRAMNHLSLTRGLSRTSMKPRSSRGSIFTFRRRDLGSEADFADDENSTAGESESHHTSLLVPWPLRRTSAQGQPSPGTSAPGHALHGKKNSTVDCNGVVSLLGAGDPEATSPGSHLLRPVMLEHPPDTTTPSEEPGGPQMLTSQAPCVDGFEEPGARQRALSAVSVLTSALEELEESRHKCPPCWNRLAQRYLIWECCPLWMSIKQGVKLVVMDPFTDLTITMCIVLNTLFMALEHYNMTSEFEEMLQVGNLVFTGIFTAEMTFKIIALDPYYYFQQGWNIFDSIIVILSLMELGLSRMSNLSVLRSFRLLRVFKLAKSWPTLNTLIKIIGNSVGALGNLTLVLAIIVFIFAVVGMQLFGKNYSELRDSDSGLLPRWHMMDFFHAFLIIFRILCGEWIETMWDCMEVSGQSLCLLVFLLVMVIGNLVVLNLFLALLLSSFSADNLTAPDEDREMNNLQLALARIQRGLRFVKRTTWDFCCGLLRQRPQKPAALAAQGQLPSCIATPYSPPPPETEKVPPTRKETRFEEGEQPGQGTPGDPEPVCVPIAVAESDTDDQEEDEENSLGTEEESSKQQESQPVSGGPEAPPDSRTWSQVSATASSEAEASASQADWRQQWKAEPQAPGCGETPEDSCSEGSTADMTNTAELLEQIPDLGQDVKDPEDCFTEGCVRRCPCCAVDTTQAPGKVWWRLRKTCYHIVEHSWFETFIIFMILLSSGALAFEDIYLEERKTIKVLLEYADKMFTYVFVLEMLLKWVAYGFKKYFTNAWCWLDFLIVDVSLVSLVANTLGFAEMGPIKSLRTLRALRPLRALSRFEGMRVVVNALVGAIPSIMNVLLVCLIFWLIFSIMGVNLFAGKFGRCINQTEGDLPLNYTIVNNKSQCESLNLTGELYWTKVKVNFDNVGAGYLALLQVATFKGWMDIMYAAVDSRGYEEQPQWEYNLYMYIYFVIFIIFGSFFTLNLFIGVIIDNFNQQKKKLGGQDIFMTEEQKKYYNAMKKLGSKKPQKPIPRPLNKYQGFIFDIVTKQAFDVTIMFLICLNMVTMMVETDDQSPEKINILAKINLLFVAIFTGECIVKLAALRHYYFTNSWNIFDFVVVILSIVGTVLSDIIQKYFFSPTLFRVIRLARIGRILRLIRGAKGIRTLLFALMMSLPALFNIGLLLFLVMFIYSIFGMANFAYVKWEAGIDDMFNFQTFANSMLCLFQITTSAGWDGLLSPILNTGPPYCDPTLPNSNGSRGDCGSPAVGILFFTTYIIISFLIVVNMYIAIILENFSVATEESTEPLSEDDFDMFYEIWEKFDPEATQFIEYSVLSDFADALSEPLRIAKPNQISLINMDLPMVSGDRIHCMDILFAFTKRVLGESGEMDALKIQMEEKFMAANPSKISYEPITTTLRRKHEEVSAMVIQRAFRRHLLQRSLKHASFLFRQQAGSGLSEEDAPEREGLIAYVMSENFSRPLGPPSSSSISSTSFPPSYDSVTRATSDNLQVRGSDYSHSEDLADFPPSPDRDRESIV

Chain of hNav1.7 (Q15858 whole entry): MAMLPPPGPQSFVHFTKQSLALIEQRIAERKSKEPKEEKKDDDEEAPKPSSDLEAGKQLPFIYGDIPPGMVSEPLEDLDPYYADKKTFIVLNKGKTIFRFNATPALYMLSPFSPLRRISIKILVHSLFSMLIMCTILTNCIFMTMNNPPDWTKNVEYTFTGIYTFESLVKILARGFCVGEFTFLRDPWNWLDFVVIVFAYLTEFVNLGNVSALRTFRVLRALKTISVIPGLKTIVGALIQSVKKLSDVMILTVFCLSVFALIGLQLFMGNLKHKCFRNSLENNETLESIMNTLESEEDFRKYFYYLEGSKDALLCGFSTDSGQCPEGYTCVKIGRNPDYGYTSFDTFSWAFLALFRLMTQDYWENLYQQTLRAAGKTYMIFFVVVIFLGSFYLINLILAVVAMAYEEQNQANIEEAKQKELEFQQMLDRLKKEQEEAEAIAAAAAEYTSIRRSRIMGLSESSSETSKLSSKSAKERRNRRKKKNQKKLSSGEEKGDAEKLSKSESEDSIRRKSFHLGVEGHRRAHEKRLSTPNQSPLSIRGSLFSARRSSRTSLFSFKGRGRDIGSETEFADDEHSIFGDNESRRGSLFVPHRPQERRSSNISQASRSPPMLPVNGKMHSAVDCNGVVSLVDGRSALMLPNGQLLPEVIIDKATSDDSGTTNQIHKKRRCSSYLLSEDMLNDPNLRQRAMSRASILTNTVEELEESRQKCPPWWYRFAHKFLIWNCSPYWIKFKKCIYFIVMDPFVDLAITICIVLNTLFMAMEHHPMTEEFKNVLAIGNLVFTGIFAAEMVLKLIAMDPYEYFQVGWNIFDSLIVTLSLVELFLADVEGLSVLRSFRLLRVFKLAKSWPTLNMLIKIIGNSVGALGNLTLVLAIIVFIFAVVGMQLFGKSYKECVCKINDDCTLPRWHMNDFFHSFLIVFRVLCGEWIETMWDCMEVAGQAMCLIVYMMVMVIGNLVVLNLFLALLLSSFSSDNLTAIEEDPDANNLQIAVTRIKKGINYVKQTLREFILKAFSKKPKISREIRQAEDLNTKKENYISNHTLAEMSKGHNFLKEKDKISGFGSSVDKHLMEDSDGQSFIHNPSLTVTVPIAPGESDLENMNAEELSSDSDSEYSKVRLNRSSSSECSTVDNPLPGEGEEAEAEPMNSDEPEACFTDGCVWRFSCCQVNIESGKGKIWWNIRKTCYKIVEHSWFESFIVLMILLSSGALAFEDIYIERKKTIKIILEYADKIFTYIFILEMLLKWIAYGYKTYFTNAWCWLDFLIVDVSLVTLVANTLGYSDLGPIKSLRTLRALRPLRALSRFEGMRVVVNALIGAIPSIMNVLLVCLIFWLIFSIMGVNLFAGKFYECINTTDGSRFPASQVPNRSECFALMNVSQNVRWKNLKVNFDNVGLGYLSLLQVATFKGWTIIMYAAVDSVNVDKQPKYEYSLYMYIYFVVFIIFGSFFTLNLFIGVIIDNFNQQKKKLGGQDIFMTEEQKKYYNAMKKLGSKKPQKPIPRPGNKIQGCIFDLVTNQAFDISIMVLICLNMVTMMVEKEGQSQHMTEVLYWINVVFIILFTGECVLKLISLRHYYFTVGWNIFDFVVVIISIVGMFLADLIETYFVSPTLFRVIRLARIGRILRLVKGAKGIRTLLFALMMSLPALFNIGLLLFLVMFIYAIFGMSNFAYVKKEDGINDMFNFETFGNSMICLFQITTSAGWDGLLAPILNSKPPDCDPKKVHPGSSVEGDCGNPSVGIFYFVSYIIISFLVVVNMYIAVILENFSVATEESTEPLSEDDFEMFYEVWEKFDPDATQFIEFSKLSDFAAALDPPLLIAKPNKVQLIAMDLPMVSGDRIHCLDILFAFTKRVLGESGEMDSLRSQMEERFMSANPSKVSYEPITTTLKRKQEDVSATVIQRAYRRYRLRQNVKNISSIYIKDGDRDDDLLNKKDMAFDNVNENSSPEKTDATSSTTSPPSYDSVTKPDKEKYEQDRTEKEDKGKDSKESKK

| SMILES | Nav1.4/Nav1.7 (hNav1.4) | IC50 (hNav1.7) [nM] | Nav1.5/Nav1.7 (hNav1.5) | IC50 (hNav1.4) [nM] | IC50 (hNav1.5) [nM] |
| --- | --- | --- | --- | --- | --- |
| CCCC[C@@H]1NC(=O)[C@H](Cc2c[nH]c3ccccc23)NC(=O)[C@H](CCCCN)NC(=O)[C@H](CCC(N)=O)NC(=O)[C@@H](NC(=O)[C@@H](N)Cc2ccc(O)cc2)CSSC[C@@H]2NC(=O)[C@@H]3CSSC[C@@H](C(=O)N[C@@H](CCCNC(=N)N)C(=O)N[C@@H](CCCCN)C(=O)N[C@H](C(=O)N[C@@H](Cc4c[nH]c5ccccc45)C(N)=O)[C@@H](C)CC)NC(=O)[C@H](Cc4c[nH]c5ccccc45)NC(=O)[C@H](CC(C)C)NC(=O)[C@H](CCCCN)NC(=O)[C@H](CSSC[C@H](NC(=O)[C@H]([C@@H](C)O)NC(=O)[C@H](Cc4c[nH]c5ccccc45)NC1=O)C(=O)N[C@@H](CC(=O)O)C(=O)N[C@@H](CCCCN=[N+]=[N-])C(=O)N[C@@H](CCCCN)C(=O)N[C@@H](CCCNC(=N)N)C(=O)N[C@@H](C)C(=O)N3)NC(=O)[C@H](CCC(=O)O)NC(=O)[C@H](CC(C)C)NC(=O)CNC(=O)[C@H](CCC(=O)O)NC2=O [compound 305] | 0 | 435 | 0 | – | – |
| CCCC[C@@H]1NC(=O)[C@H](Cc2c[nH]c3ccccc23)NC(=O)[C@H](CCCCN)NC(=O)[C@H](CCC(N)=O)NC(=O)[C@@H](NC(=O)[C@@H](N)Cc2ccc(O)cc2)CSSC[C@@H]2NC(=O)[C@@H]3CSSC[C@@H](C(=O)N[C@@H](CCCNC(=N)N)C(=O)N[C@@H](CCCCN)C(=O)N[C@H](C(=O)N[C@@H](Cc4c[nH]c5ccccc45)C(N)=O)[C@@H](C)CC)NC(=O)[C@H](Cc4c[nH]c5ccccc45)NC(=O)[C@H](CC(C)C)NC(=O)[C@H](CCCCN)NC(=O)[C@H](CSSC[C@H](NC(=O)[C@H]([C@@H](C)O)NC(=O)[C@H](Cc4c[nH]c5ccccc45)NC1=O)C(=O)N[C@@H](CC(=O)O)C(=O)N[C@@H](CO)C(=O)N[C@@H](CCCCN)C(=O)N[C@@H](CCCNC(=N)N)C(=O)N[C@@H](CCCCN=[N+]=[N-])C(=O)N3)NC(=O)[C@H](CCC(=O)O)NC(=O)[C@H](CC(C)C)NC(=O)CNC(=O)[C@H](CCC(=O)O)NC2=O [compound 306] | 550 | 1.15 | – | 635 | 1970 |
| CCCC[C@@H]1NC(=O)[C@H](Cc2c[nH]c3ccccc23)NC(=O)[C@H](CCCCN)NC(=O)[C@H](CCC(N)=O)NC(=O)[C@@H](NC(=O)[C@@H](N)Cc2ccc(O)cc2)CSSC[C@@H]2NC(=O)[C@@H]3CSSC[C@@H](C(=O)N[C@@H](CCCNC(=N)N)C(=O)N[C@@H](CCCCN)C(=O)N[C@H](C(=O)N[C@@H](Cc4c[nH]c5ccccc45)C(N)=O)[C@@H](C)CC)NC(=O)[C@H](Cc4c[nH]c5ccccc45)NC(=O)[C@H](CC(C)C)NC(=O)[C@H](CCCCN)NC(=O)[C@H](CSSC[C@H](NC(=O)[C@H]([C@@H](C)O)NC(=O)[C@H](Cc4c[nH]c5ccccc45)NC1=O)C(=O)N[C@@H](CC(=O)O)C(=O)N[C@@H](CO)C(=O)N[C@@H](CCCCN)C(=O)N[C@@H](CCCNC(=N)N)C(=O)N[C@@H](C)C(=O)N3)NC(=O)[C@H](CCC(=O)O)NC(=O)[C@H](CC(C)C)NC(=O)CNC(=O)[C@H](CCCCN=[N+]=[N-])NC2=O [compound 307] | 40 | 9.08 | 83 | 360 | 750 |
| CCCC[C@@H]1NC(=O)[C@H](Cc2c[nH]c3ccccc23)NC(=O)[C@H](CCCCN)NC(=O)[C@H](CCC(N)=O)NC(=O)[C@@H](NC(=O)[C@H](Cc2ccc(O)cc2)NC(=O)[C@@H](N)CCN=[N+]=[N-])CSSC[C@@H]2NC(=O)[C@@H]3CSSC[C@@H](C(=O)N[C@@H](CCCNC(=N)N)C(=O)N[C@@H](CCCCN)C(=O)N[C@H](C(=O)N[C@@H](Cc4c[nH]c5ccccc45)C(N)=O)[C@@H](C)CC)NC(=O)[C@H](Cc4c[nH]c5ccccc45)NC(=O)[C@H](CC(C)C)NC(=O)[C@H](CCCCN)NC(=O)[C@H](CSSC[C@H](NC(=O)[C@H]([C@@H](C)O)NC(=O)[C@H](Cc4c[nH]c5ccccc45)NC1=O)C(=O)N[C@@H](CC(=O)O)C(=O)N[C@@H](CO)C(=O)N[C@@H](CCCCN)C(=O)N[C@@H](CCCNC(=N)N)C(=O)N[C@@H](C)C(=O)N3)NC(=O)[C@H](CCC(=O)O)NC(=O)[C@H](CC(C)C)NC(=O)CNC(=O)[C@H](CCC(=O)O)NC2=O [compound 308] | – | 1.12 | – | 1200 | 3770 |
| CCCC[C@@H]1NC(=O)[C@H](Cc2c[nH]c3ccccc23)NC(=O)[C@H](CCCCN)NC(=O)[C@H](CCC(N)=O)NC(=O)[C@@H](NC(=O)[C@@H](N)CCN=[N+]=[N-])CSSC[C@@H]2NC(=O)[C@@H]3CSSC[C@@H](C(=O)N[C@@H](CCCNC(=N)N)C(=O)N[C@@H](CCCCN)C(=O)N[C@H](C(=O)N[C@@H](Cc4c[nH]c5ccccc45)C(N)=O)[C@@H](C)CC)NC(=O)[C@H](Cc4c[nH]c5ccccc45)NC(=O)[C@H](CC(C)C)NC(=O)[C@H](CCCCN)NC(=O)[C@H](CSSC[C@H](NC(=O)[C@H]([C@@H](C)O)NC(=O)[C@H](Cc4c[nH]c5ccccc45)NC1=O)C(=O)N[C@@H](CC(=O)O)C(=O)N[C@@H](CO)C(=O)N[C@@H](CCCCN)C(=O)N[C@@H](CCCNC(=N)N)C(=O)N[C@@H](C)C(=O)N3)NC(=O)[C@H](CCC(=O)O)NC(=O)[C@H](CC(C)C)NC(=O)CNC(=O)[C@H](CCC(=O)O)NC2=O [compound 309] | – | 3.21 | – | 767 | 2030 |
| C#CC[C@H](N)C(=O)N[C@@H](Cc1ccc(O)cc1)C(=O)N[C@H]1CSSC[C@@H]2NC(=O)[C@@H]3CSSC[C@@H](C(=O)N[C@@H](CCCNC(=N)N)C(=O)N[C@@H](CCCCN)C(=O)N[C@@H](Cc4ccc(O)cc4)C(=O)N[C@H](C(N)=O)[C@@H](C)CC)NC(=O)[C@H](Cc4c[nH]c5ccccc45)NC(=O)[C@H](CC(C)C)NC(=O)[C@H](CCCCN)NC(=O)[C@H](CSSC[C@H](NC(=O)[C@H]([C@@H](C)O)NC(=O)[C@H](Cc4c[nH]c5ccccc45)NC(=O)[C@H](CCCC)NC(=O)[C@H](Cc4c[nH]c5ccccc45)NC(=O)[C@H](CCCCN)NC(=O)[C@H](CCC(N)=O)NC1=O)C(=O)N[C@@H](CC(=O)O)C(=O)N[C@@H](CO)C(=O)N[C@@H](CCCCN)C(=O)N[C@@H](CCCNC(=N)N)C(=O)N[C@@H](C)C(=O)N3)NC(=O)[C@H](CCC(=O)O)NC(=O)[C@H](CC(C)C)NC(=O)CNC(=O)[C@H](CCC(=O)O)NC2=O [compound 313] | – | 0.427 | – | 966 | 4370 |
| C#CC[C@@H]1NC(=O)[C@H](CC(=O)O)NC(=O)[C@@H]2CSSC[C@@H]3NC(=O)[C@H](CCC(=O)O)NC(=O)[C@H](CC(C)C)NC(=O)CNC(=O)[C@H](CCC(=O)O)NC(=O)[C@H](CSSC[C@H](NC(=O)[C@@H](N)Cc4ccc(O)cc4)C(=O)N[C@@H](CCC(N)=O)C(=O)N[C@@H](CCCCN)C(=O)N[C@@H](Cc4c[nH]c5ccccc45)C(=O)N[C@@H](CCCC)C(=O)N[C@@H](Cc4c[nH]c5ccccc45)C(=O)N[C@@H]([C@@H](C)O)C(=O)N2)NC(=O)[C@H](CSSC[C@@H](C(=O)N[C@@H](CCCNC(=N)N)C(=O)N[C@@H](CCCCN)C(=O)N[C@@H](Cc2ccc(O)cc2)C(=O)N[C@H](C(N)=O)[C@@H](C)CC)NC(=O)[C@H](Cc2c[nH]c4ccccc24)NC(=O)[C@H](CC(C)C)NC(=O)[C@H](CCCCN)NC3=O)NC(=O)[C@H](C)NC(=O)[C@H](CCCNC(=N)N)NC(=O)[C@H](CCCCN)NC1=O [compound 315] | – | 1.28 | – | 825 | 2460 |
| C#CC[C@@H]1NC(=O)[C@H](CCCNC(=N)N)NC(=O)[C@H](CCCCN)NC(=O)[C@H](CO)NC(=O)[C@H](CC(=O)O)NC(=O)[C@@H]2CSSC[C@@H]3NC(=O)[C@H](CCC(=O)O)NC(=O)[C@H](CC(C)C)NC(=O)CNC(=O)[C@H](CCC(=O)O)NC(=O)[C@H](CSSC[C@H](NC(=O)[C@@H](N)Cc4ccc(O)cc4)C(=O)N[C@@H](CCC(N)=O)C(=O)N[C@@H](CCCCN)C(=O)N[C@@H](Cc4c[nH]c5ccccc45)C(=O)N[C@@H](CCCC)C(=O)N[C@@H](Cc4c[nH]c5ccccc45)C(=O)N[C@@H]([C@@H](C)O)C(=O)N2)NC(=O)[C@H](CSSC[C@@H](C(=O)N[C@@H](CCCNC(=N)N)C(=O)N[C@@H](CCCCN)C(=O)N[C@@H](Cc2ccc(O)cc2)C(=O)N[C@H](C(N)=O)[C@@H](C)CC)NC(=O)[C@H](Cc2c[nH]c4ccccc24)NC(=O)[C@H](CC(C)C)NC(=O)[C@H](CCCCN)NC3=O)NC1=O [compound 316] | – | 1.76 | – | 707 | 3690 |
| C#CC[C@@H]1NC(=O)[C@@H]2CSSC[C@H](NC(=O)[C@@H](N)Cc3ccc(O)cc3)C(=O)N[C@@H](CCC(N)=O)C(=O)N[C@@H](CCCCN)C(=O)N[C@@H](Cc3c[nH]c4ccccc34)C(=O)N[C@@H](CCCC)C(=O)N[C@@H](Cc3c[nH]c4ccccc34)C(=O)N[C@@H]([C@@H](C)O)C(=O)N[C@H]3CSSC[C@H](NC(=O)[C@H](CCC(=O)O)NC(=O)[C@H](CC(C)C)NC(=O)CNC1=O)C(=O)N[C@@H](CCCCN)C(=O)N[C@@H](CC(C)C)C(=O)N[C@@H](Cc1c[nH]c4ccccc14)C(=O)N[C@H](C(=O)N[C@@H](CCCNC(=N)N)C(=O)N[C@@H](CCCCN)C(=O)N[C@@H](Cc1ccc(O)cc1)C(=O)N[C@H](C(N)=O)[C@@H](C)CC)CSSC[C@H](NC(=O)[C@H](C)NC(=O)[C@H](CCCNC(=N)N)NC(=O)[C@H](CCCCN)NC(=O)[C@H](CO)NC(=O)[C@H](CC(=O)O)NC3=O)C(=O)N2 [compound 317] | – | 3.8 | – | 614 | 3520 |
| C#CC[C@H](N)C(=O)N[C@@H](Cc1ccc(O)cc1)C(=O)N[C@H]1CSSC[C@@H]2NC(=O)[C@@H]3CSSC[C@@H](C(=O)N[C@@H](CCCNC(=N)N)C(=O)N[C@@H](CCCCN)C(=O)N[C@@H](CCC(=O)O)C(=O)N[C@H](C(N)=O)[C@@H](C)CC)NC(=O)[C@H](Cc4c[nH]c5ccccc45)NC(=O)[C@H](CC(C)C)NC(=O)[C@H](CCCCN)NC(=O)[C@H](CSSC[C@H](NC(=O)[C@H]([C@@H](C)O)NC(=O)[C@H](Cc4c[nH]c5ccccc45)NC(=O)[C@H](CCCC)NC(=O)[C@H](Cc4c[nH]c5ccccc45)NC(=O)[C@H](CCCCN)NC(=O)[C@H](CCC(N)=O)NC1=O)C(=O)N[C@@H](CC(=O)O)C(=O)N[C@@H](CO)C(=O)N[C@@H](CCCCN)C(=O)N[C@@H](CCCNC(=N)N)C(=O)N[C@@H](C)C(=O)N3)NC(=O)[C@H](CCCNC(=N)N)NC(=O)[C@H](CC(C)C)NC(=O)CNC(=O)[C@H](CCC(=O)O)NC2=O [compound 328] | – | 0.515 | – | 130 | 3020 |
